Experiments:
Galium spurium = test: Test Example 5: herbicidal effect by foliage application, plastic box (symbol Q); format: in vivo; conditions: 320 g/ha, 3 weeks after application
Method in brief: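 Emulsion formulation, diluted with water to the intended rate, was applied uniformly to leaves by small sprayer. Recipients were 14-day greenhouse-grown seedlings (25° C. to 30° C.). Assessment followed at 3 weeks.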

Monochoria vaginalis = test: Test Example 1: herbicidal activity, application before weed generation in submerged conditions (symbol C); format: in vivo; conditions: application herbicide amount 320 g/ha
Method in brief: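 Greenhouse growth at 25–30 °C lasted 3 weeks after treatment, when each weed was graded 0–5 by herbicidal ratio. Treatment was a diluted emulsion applied to the water surface of 4 cm-submerged alluvial soil on the sowing day.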

## CON=C(C)CC1CC(O)=C(c2c(C)cc(-c3ccccn3)cc2C)C1=O (mixture of isomers) [6-051]
Galium spurium
  Q: Galium spurium, herbicidal effect grade: 4 (Herbicidal ratio of 70% or higher and lower than 90%)
Monochoria vaginalis
  Herbicidal effect grade, C: Monochoria vaginalis: 2 (Herbicidal ratio of 20% or higher and lower than 40%)

## CON=C(C)CC1CC(O)=C(c2c(C)cc(OCc3ccncc3)cc2C)C1=O (mixture of isomers) [6-053]
Galium spurium
  Q: Galium spurium, herbicidal effect grade: 0 (Herbicidal ratio of 5% or lower (almost no effect))
Monochoria vaginalis
  Herbicidal effect grade, C: Monochoria vaginalis: 1 (Herbicidal ratio of 5% or higher and lower than 20%)

## CON=C(C)CC1CC(O)=C(c2c(C)cc(-c3ccc(OC(F)(F)F)cc3)cc2C)C1=O (mixture of isomers) [6-056]
Monochoria vaginalis
  Herbicidal effect grade, C: Monochoria vaginalis: 0 (Herbicidal ratio of 5% or lower (almost no effect))

## CON=C(C)CC1CC(O)=C(c2c(C)cc(-c3ncccn3)cc2C)C1=O (mixture of isomers) [6-057]
Galium spurium
  Q: Galium spurium, herbicidal effect (criteria of Test Example 1): 3 (Herbicidal ratio of 40% or higher and lower than 70%)
Monochoria vaginalis
  Herbicidal effect grade, C: Monochoria vaginalis: 1 (Herbicidal ratio of 5% or higher and lower than 20%)

## CON=C(C)CC1CC(O)=C(c2c(C)cc(-c3ccc(F)cc3)cc2C)C1=O (mixture of isomers) [6-058]
Galium spurium
  Q: Galium spurium, herbicidal effect (criteria of Test Example 1): 5 (Herbicidal ratio of 90% or more (almost completely withered))
Monochoria vaginalis
  Herbicidal effect grade, C: Monochoria vaginalis: 5 (Herbicidal ratio of 90% or more (almost completely withered))

## CON=C(C)CC1CC(OC(=O)N2CCOCC2)=C(c2c(C)cc(-c3ccc(F)cc3)cc2C)C1=O (mixture of isomers) [6-059]
Galium spurium
  Q: Galium spurium, herbicidal effect (criteria of Test Example 1): 4 (Herbicidal ratio of 70% or higher and lower than 90%)
Monochoria vaginalis
  Herbicidal effect grade, C: Monochoria vaginalis: 4 (Herbicidal ratio of 70% or higher and lower than 90%)

## CON=C(C)CC1CC(OS(=O)(=O)N(C)C)=C(c2c(C)cc(-c3ccc(F)cc3)cc2C)C1=O (mixture of isomers) [6-060]
Galium spurium
  Q: Galium spurium, herbicidal effect (criteria of Test Example 1): 4 (Herbicidal ratio of 70% or higher and lower than 90%)
Monochoria vaginalis
  Herbicidal effect grade, C: Monochoria vaginalis: 5 (Herbicidal ratio of 90% or more (almost completely withered))

## CON=C(C)CC1CC(OC(=O)COc2ccccc2)=C(c2c(C)cc(-c3ccc(Cl)cc3)cc2C)C1=O (mixture of isomers) [6-061]
Galium spurium
  Q: Galium spurium, herbicidal effect (criteria of Test Example 1): 3 (Herbicidal ratio of 40% or higher and lower than 70%)
Monochoria vaginalis
  Herbicidal effect grade, C: Monochoria vaginalis: 1 (Herbicidal ratio of 5% or higher and lower than 20%)

## CON=C(C)CC1CC(OC(=O)N2CCOCC2)=C(c2c(C)cc(-c3ccc(Cl)cc3)cc2C)C1=O (mixture of isomers) [6-062]
Galium spurium
  Q: Galium spurium, herbicidal effect (criteria of Test Example 1): 5 (Herbicidal ratio of 90% or more (almost completely withered))
Monochoria vaginalis
  Herbicidal effect grade, C: Monochoria vaginalis: 4 (Herbicidal ratio of 70% or higher and lower than 90%)

## CON=C(C)CC1CC(OC(=O)N(C)C)=C(c2c(C)cc(-c3ccc(Cl)cc3)cc2C)C1=O (mixture of isomers) [6-063]
Galium spurium
  Q: Galium spurium, herbicidal effect (criteria of Test Example 1): 3 (Herbicidal ratio of 40% or higher and lower than 70%)
Monochoria vaginalis
  Herbicidal effect grade, C: Monochoria vaginalis: 3 (Herbicidal ratio of 40% or higher and lower than 70%)

## CCc1cc(-c2ccc(Cl)cc2)cc(C)c1C1=C(OC(=O)N2CCOCC2)CC(CC(C)=NOC)C1=O (mixture of isomers) [6-064]
Monochoria vaginalis
  Herbicidal effect grade, C: Monochoria vaginalis: 0 (Herbicidal ratio of 5% or lower (almost no effect))

## CON=C(C)CC1CC(OC(=O)C2CC2)=C(c2c(C)cc(C)cc2C)C1=O (centres unmarked) [1-015]
Galium spurium
  Q: Galium spurium, herbicidal effect grade: 4 (Herbicidal ratio of 70% or higher and lower than 90%)
Monochoria vaginalis
  Herbicidal effect grade, C: Monochoria vaginalis: 2 (Herbicidal ratio of 20% or higher and lower than 40%)

## CON=C(C)CC1CC(OC(=O)C(C)(C)CCl)=C(c2c(C)cc(C)cc2C)C1=O (centres unmarked) [1-016]
Monochoria vaginalis
  Herbicidal effect grade, C: Monochoria vaginalis: 4 (Herbicidal ratio of 70% or higher and lower than 90%)

## CON=C(C)CC1CC(OC(=O)C(C)(C)Oc2ccccc2)=C(c2c(C)cc(C)cc2C)C1=O (centres unmarked) [1-017]
Monochoria vaginalis
  Herbicidal effect grade, C: Monochoria vaginalis: 2 (Herbicidal ratio of 20% or higher and lower than 40%)

## C=CCON=C(C)CC1CC(O)=C(c2c(C)cc(C)cc2C)C1=O (centres unmarked) [1-018]
Galium spurium
  Q: Galium spurium, herbicidal effect grade: 4 (Herbicidal ratio of 70% or higher and lower than 90%)
Monochoria vaginalis
  Herbicidal effect grade, C: Monochoria vaginalis: 2 (Herbicidal ratio of 20% or higher and lower than 40%)

## C#CCON=C(C)CC1CC(O)=C(c2c(C)cc(C)cc2C)C1=O (centres unmarked) [1-019]
Galium spurium
  Q: Galium spurium, herbicidal effect grade: 4 (Herbicidal ratio of 70% or higher and lower than 90%)
Monochoria vaginalis
  Herbicidal effect grade, C: Monochoria vaginalis: 2 (Herbicidal ratio of 20% or higher and lower than 40%)

## CC(CC1CC(O)=C(c2c(C)cc(C)cc2C)C1=O)=NOCc1ccccc1 (centres unmarked) [1-020]
Galium spurium
  Q: Galium spurium, herbicidal effect grade: 4 (Herbicidal ratio of 70% or higher and lower than 90%)
Monochoria vaginalis
  Herbicidal effect grade, C: Monochoria vaginalis: 4 (Herbicidal ratio of 70% or higher and lower than 90%)

## CON=C(C)C(C(C)=NOC)C1CC(O)=C(c2c(C)cc(C)cc2C)C1=O (centres unmarked) [1-021]
Galium spurium
  Q: Galium spurium, herbicidal effect grade: 0 (Herbicidal ratio of 5% or lower (almost no effect))
Monochoria vaginalis
  Herbicidal effect grade, C: Monochoria vaginalis: 0 (Herbicidal ratio of 5% or lower (almost no effect))

## CC(CC1CC(O)=C(c2c(C)cc(C)cc2C)C1=O)=NOCc1ccccn1 (centres unmarked) [1-022]
Galium spurium
  Q: Galium spurium, herbicidal effect grade: 4 (Herbicidal ratio of 70% or higher and lower than 90%)
Monochoria vaginalis
  Herbicidal effect grade, C: Monochoria vaginalis: 2 (Herbicidal ratio of 20% or higher and lower than 40%)

## COC(=O)CON=C(C)CC1CC(O)=C(c2c(C)cc(C)cc2C)C1=O (centres unmarked) [1-023]
Galium spurium
  Q: Galium spurium, herbicidal effect grade: 2 (Herbicidal ratio of 20% or higher and lower than 40%)
Monochoria vaginalis
  Herbicidal effect grade, C: Monochoria vaginalis: 0 (Herbicidal ratio of 5% or lower (almost no effect))

## CON=C(C)CC1CC(O)=C(c2c(C)cc(Oc3ccccc3)cc2C)C1=O (centres unmarked) [6-052]
Galium spurium
  Q: Galium spurium, herbicidal effect grade: 0 (Herbicidal ratio of 5% or lower (almost no effect))
Monochoria vaginalis
  Herbicidal effect grade, C: Monochoria vaginalis: 0 (Herbicidal ratio of 5% or lower (almost no effect))

## CON=C(C)CC1CC(O)=C(c2c(C)cc(C(C)=NOC)cc2C)C1=O (centres unmarked) [6-065]
Galium spurium
  Q: Galium spurium, herbicidal effect (criteria of Test Example 1): 3 (Herbicidal ratio of 40% or higher and lower than 70%)
Monochoria vaginalis
  Herbicidal effect grade, C: Monochoria vaginalis: 3 (Herbicidal ratio of 40% or higher and lower than 70%)

## CCc1cc(-c2ccc(Cl)cc2)cc(C)c1C1=C(O)CC(CC(C)=NOC)C1=O (centres unmarked) [6-066]
Monochoria vaginalis
  Herbicidal effect grade, C: Monochoria vaginalis: 2 (Herbicidal ratio of 20% or higher and lower than 40%)

## CON=C(C)CC1CC(O)=C(c2c(C)cc(-n3cccn3)cc2C)C1=O (centres unmarked) [6-073]
Galium spurium
  Q: Galium spurium, herbicidal effect (criteria of Test Example 1): 3 (Herbicidal ratio of 40% or higher and lower than 70%)
Monochoria vaginalis
  Herbicidal effect grade, C: Monochoria vaginalis: 1 (Herbicidal ratio of 5% or higher and lower than 20%)

## CON=C(C)CC1CC(O)=C(c2c(C)cc(-n3cncn3)cc2C)C1=O (centres unmarked) [6-074]
Galium spurium
  Q: Galium spurium, herbicidal effect (criteria of Test Example 1): 0 (Herbicidal ratio of 5% or lower (almost no effect))
Monochoria vaginalis
  Herbicidal effect grade, C: Monochoria vaginalis: 0 (Herbicidal ratio of 5% or lower (almost no effect))

## CON=C(C)CC1CC(O)=C(c2c(C)cc(C)cc2SC)C1=O (centres unmarked) [6-075]
Galium spurium
  Q: Galium spurium, herbicidal effect (criteria of Test Example 1): 0 (Herbicidal ratio of 5% or lower (almost no effect))
Monochoria vaginalis
  Herbicidal effect grade, C: Monochoria vaginalis: 2 (Herbicidal ratio of 20% or higher and lower than 40%)

## CON=C(C)CC1CC(O)=C(c2c(C)cc(-c3ccc(Cl)cc3)cc2OC)C1=O (centres unmarked) [6-077, 2-(4′-chloro-3-methoxy-5-methyl-[1,1′-biphenyl]-4-yl)-3-hydroxy-5-{2-(methoxyimino)propyl}cyclopent-2-enone]
Galium spurium
  Q: Galium spurium, herbicidal effect (criteria of Test Example 1): 4 (Herbicidal ratio of 70% or higher and lower than 90%)
Monochoria vaginalis
  Herbicidal effect grade, C: Monochoria vaginalis: 3 (Herbicidal ratio of 40% or higher and lower than 70%)

## CON=C(C)CC1CC(OC(=O)N2CCOCC2)=C(c2c(C)cc(-c3ccc(Cl)cc3)cc2OC)C1=O (centres unmarked) [6-078, 2-(4′-chloro-3-methoxy-5-methyl-[1,1′-biphenyl]-4-yl)-4-{2-(methoxyimino)propyl}-3-oxocyclopent-1-ene-1-yl morpholine-4-carboxylate]
Monochoria vaginalis
  Herbicidal effect grade, C: Monochoria vaginalis: 4 (Herbicidal ratio of 70% or higher and lower than 90%)

## CON=C(C)CC1CC(OC(=O)COc2ccccc2)=C(c2c(C)cc(-c3ccc(Cl)cc3)cc2OC)C1=O (centres unmarked) [6-079]
Galium spurium
  Q: Galium spurium, herbicidal effect (criteria of Test Example 1): 4 (Herbicidal ratio of 70% or higher and lower than 90%)
Monochoria vaginalis
  Herbicidal effect grade, C: Monochoria vaginalis: 2 (Herbicidal ratio of 20% or higher and lower than 40%)

## CON=C(C)CC1CC(OCOC(=O)c2ccccc2)=C(c2c(C)cc(-c3ccc(Cl)cc3)cc2C)C1=O (centres unmarked) [6-083]
Monochoria vaginalis
  Herbicidal effect grade, C: Monochoria vaginalis: 4 (Herbicidal ratio of 70% or higher and lower than 90%)

## CON=C(C)CC1CC(OC(=O)C(C)CSC)=C(c2c(C)cc(-c3ccc(Cl)cc3)cc2C)C1=O (centres unmarked) [6-086]
Monochoria vaginalis
  Herbicidal effect grade, C: Monochoria vaginalis: 0 (Herbicidal ratio of 5% or lower (almost no effect))

## CON=C(C)CC1CC(O)=C(c2c(C)cc(-c3cc(Cl)cc(Cl)c3)cc2C)C1=O (centres unmarked) [6-087]
Monochoria vaginalis
  Herbicidal effect grade, C: Monochoria vaginalis: 0 (Herbicidal ratio of 5% or lower (almost no effect))

## CCc1cc(Br)cc(C)c1C1=C(O)CC(C(C(C)=O)C(=O)OC)C1=O (centres unmarked) [7-001]
Monochoria vaginalis
  Herbicidal effect grade, C: Monochoria vaginalis: 0 (Herbicidal ratio of 5% or lower (almost no effect))

## CC(=O)CC1CC(O)=C(c2c(C)cc(-c3ccc(C)cc3)cc2C)C1=O (centres unmarked) [7-007]
Monochoria vaginalis
  Herbicidal effect grade, C: Monochoria vaginalis: 3 (Herbicidal ratio of 40% or higher and lower than 70%)

## CC(=O)CC1CC(O)=C(c2c(C)cc(-c3ccc(Cl)cc3)cc2C)C1=O (centres unmarked) [7-008]
Monochoria vaginalis
  Herbicidal effect grade, C: Monochoria vaginalis: 0 (Herbicidal ratio of 5% or lower (almost no effect))

## CC(=O)CC1CC(O)=C(c2c(C)cc(-c3ccccn3)cc2C)C1=O (centres unmarked) [7-012]
Monochoria vaginalis
  Herbicidal effect grade, C: Monochoria vaginalis: 0 (Herbicidal ratio of 5% or lower (almost no effect))

## CC(=O)CC1CC(O)=C(c2c(C)cc(OCC(F)(F)F)cc2C)C1=O (centres unmarked) [7-015]
Monochoria vaginalis
  Herbicidal effect grade, C: Monochoria vaginalis: 2 (Herbicidal ratio of 20% or higher and lower than 40%)

## CC(=O)CC1CC(O)=C(c2c(C)cc(Oc3ccc(C(F)(F)F)cn3)cc2C)C1=O (centres unmarked) [7-019]
Monochoria vaginalis
  Herbicidal effect grade, C: Monochoria vaginalis: 0 (Herbicidal ratio of 5% or lower (almost no effect))

## CON=C(C)C(=O)C1CC(O)=C(c2c(C)cc(C)cc2C)C1=O (centres unmarked) [8-002]
Monochoria vaginalis
  Herbicidal effect grade, C: Monochoria vaginalis: 0 (Herbicidal ratio of 5% or lower (almost no effect))

Source: patent US11000033B2, “Ketone or oxime compound, and herbicide” (NISSAN CHEMICAL CORPORATION, priority 2014, dated 2021)
